Experimental data from patent US9585893B2, “Flumazenil complexes, compositions comprising same and uses thereof” (COERULEUS LTD., priority 2011, dated 2017).
Counter-ions that a name gives are not always drawn. One block for each compound: values may come before it.

Tests used:
[1] = assay type: physicochemical
Method: Flumazenil chloride salt consisting of flumazenil and hydrochloride acid was prepared (FIG. 1). […] The concentration of flumazenil in that composition is higher by […] than the concentration of flumazenil in the commercial product Romazicon® (Romazicon® contains 0.01% flumazenil).

[2] = test system: hepatic encephalopathy in patients with cirrhosis; settings: intravenous infusion of 1 mg flumazenil in 20 ml saline over 3-5 minutes; cited from earlier work
[3] = adult doses; cited from earlier work

concentration of flumazenil in the composition enabled by increased solubility [1]: 0.66%
Structure (SMILES): CCOC(=O)c1ncn2c1CN(C)C(=O)c1cc(F)ccc1-2 [Flumazenil chloride salt]

Structure (SMILES): CCOC(=O)c1ncn2c1CN(C)C(=O)c1cc(F)ccc1-2 [flumazenil, ethyl 8-fluoro-5,6-dihydro-5-methyl-6-oxo-4H-imidazo[1,5-a][1,4]benzodiazepine-3-carboxylate]
effect on recovery or survival [2]: no significant effect
effect on short-term improvement of hepatic encephalopathy [2]: significant beneficial effect

Structure (SMILES): NC(=O)c1cccnc1 [nicotinamide, 3-pyridinecarboxamide]
dose considered to have toxic potential [3]: > 3 gm/day
